The numbers were not newly measured in patent publication US20260151341A1, “NOVEL AMORPHOUS ACTIVE PHARMACEUTICAL INGREDIENTS” (DISRUPTIVE PHARMA AB, priority 2020, published 2026), which cites them from elsewhere.

For the data set the following is noted: mesoporous silica, study referred to by Gupte et al.

For the compound `CCC(C)n1ncn(-c2ccc(N3CCN(c4ccc(OCC5COC(Cn6cncn6)(c6ccc(Cl)cc6Cl)O5)cc4)CC3)cc2)c1=O` (stereo not shown) [Itraconazole, itraconazole], the “loading at which stabilized by silica” value is recorded as “more than 32 % by weight”.
